From patent US8415272B2, “Quinoline derivatives and their use as fungicides” (Syngenta Crop Protection LLC, priority 2008, dated 2013)

How the values were obtained:
Pythium ultimum = test: Growth inhibition in potato dextrose broth, Pythium ultimum (damping off), photometric; type: cell-based; conditions: Globisporangium ultimum, 24° C., 48 hours, read-out: control of fungal infection, Pythium ultimum
Experimental: The compounds were tested in a leaf disk assay, with methods described below. The test compounds were dissolved in DMSO and diluted into water to 200 ppm. In the case of the test on Pythium ultimum, they were dissolved in DMSO and diluted into water to 20 ppm. Pythium ultimum (Damping off): Mycelial fragments of the fungus, prepared from a fresh liquid culture, were mixed into potato dextrose broth. A solution of the test compound in dimethyl sulphoxide was diluted with water to 20 ppm then placed into a 96-well microtiter plate and the nutrient broth containing the fungal spores was added. The test plate was incubated at 24° C. and the inhibition of growth was determined photometrically after 48 hours.

Phytophthora infestans = test: whole plant or invertebrate; type: in vivo; conditions: in Solanum lycopersicum, foliar, 96 h, read-out: control of fungal infection, Phytophthora infestans
[1] = system: Erysiphe graminis f.sp. tritici; test: Leaf disk assay, Erysiphe graminis f.sp. tritici (wheat powdery mildew), preventive; type: in vivo; conditions: Blumeria graminis, foliar, 96 h, wheat leaf segments, assessed four days after inoculation, read-out: control of fungal infection, Erysiphe graminis f.sp. tritici
Experimental: The compounds were tested in a leaf disk assay, with methods described below. The test compounds were dissolved in DMSO and diluted into water to 200 ppm. In the case of the test on Pythium ultimum, they were dissolved in DMSO and diluted into water to 20 […] graminis f.sp. tritici (wheat powdery mildew): Wheat leaf segments were placed on agar in a 24-well plate and sprayed with a solution of the test compound. After allowing to dry completely, for between 12 and 24 hours, the leaf disks were inoculated with a spore suspension of the fungus. After appropriate incubation the activity of a compound was assessed four days after inoculation as preventive fungicidal activity.

Plasmopara viticola = test: Leaf disk assay, Plasmopara viticola (downy mildew of grapevine), preventive; type: in vivo; conditions: foliar, 168 h, grapevine leaf disks, assessed seven days after inoculation, read-out: control of fungal infection, Plasmopara viticola
[2] = system: Puccinia recondita f.sp. tritici; test: Leaf disk assay, Puccinia recondita f.sp. tritici (wheat brown rust), preventive; type: in vivo; conditions: foliar, 216 h, wheat leaf segments, assessed nine days after inoculation, read-out: control of fungal infection, Puccinia recondita f.sp. tritici
Septoria tritici = test: Growth inhibition in nutrient broth, Septoria tritici (leaf blotch), photometric; type: cell-based; conditions: Zymoseptoria tritici, PDB broth, 24 C, 72 hrs, read-out: control of fungal infection, Septoria tritici
Fusarium culmorum = test: Growth inhibition in nutrient broth, Fusarium culmorum (root rot), photometric; type: cell-based; conditions: 48 h, read-out: control of fungal infection, Fusarium culmorum
Experimental: The compounds were tested in a leaf disk assay, with methods described below. The test compounds were dissolved in DMSO and diluted into water to 200 ppm. In the case of the test on Pythium ultimum, they were dissolved in DMSO and diluted into water to 20 ppm.
Fusarium culmorum (root rot): Conidia of the fungus from cryogenic storage were directly mixed into nutrient broth (PDB potato dextrose broth). After placing a (DMSO) solution of the test compounds into a microtiter plate (96-well format) the nutrient broth containing the fungal spores was added. The test plates were incubated at 24 C and the inhibition of growth was determined photometrically after 48 hrs.

Septoria nodorum = test: Leaf disk assay, Septoria nodorum (wheat glume blotch), preventive; type: in vivo; conditions: Parastagonospora nodorum, foliar, 96 h, wheat leaf segments, assessed four days after inoculation, read-out: control of fungal infection, Septoria nodorum

COCC#Cc1cnc2ccc(OC(SC)C(=O)NC(C)(C)C)cc2c1 (stereo not drawn) [Example 42]
≥ 60%: inhibition of growth at 20 ppm (Pythium ultimum) | pest or weed control at 200 ppm (Phytophthora infestans) | pest or weed control at 200 ppm [1] | pest or weed control at 200 ppm (Plasmopara viticola) | pest or weed control at 200 ppm [2] | inhibition of growth at 60 ppm (Septoria tritici) | inhibition of growth at 60 ppm (Fusarium culmorum)

CC#Cc1cnc2ccc(OC(SC)C(=O)NC(C)(C)C)cc2c1 (stereo not drawn) [Example 54]
≥ 60%: inhibition of growth at 20 ppm (Pythium ultimum) | pest or weed control at 200 ppm (Phytophthora infestans) | pest or weed control at 200 ppm [1] | pest or weed control at 200 ppm (Plasmopara viticola) | pest or weed control at 200 ppm (Septoria nodorum) | inhibition of growth at 60 ppm (Septoria tritici) | inhibition of growth at 60 ppm (Fusarium culmorum)

C#CC(C)(C)NC(=O)C(Oc1ccc2ncc(C#CC)cc2c1)SC (stereo not drawn) [Example 57]
≥ 60%: pest or weed control at 200 ppm (Phytophthora infestans) | pest or weed control at 200 ppm (Plasmopara viticola) | pest or weed control at 200 ppm (Septoria nodorum) | inhibition of growth at 60 ppm (Septoria tritici) | inhibition of growth at 60 ppm (Fusarium culmorum)

C#Cc1cnc2ccc(OC(SC)C(=O)NC(C)(C)C=O)cc2c1 (stereo not drawn) [Example 61]
≥ 60%: inhibition of growth at 20 ppm (Pythium ultimum) | pest or weed control at 200 ppm (Phytophthora infestans) | pest or weed control at 200 ppm [1] | pest or weed control at 200 ppm (Plasmopara viticola) | pest or weed control at 200 ppm [2] | inhibition of growth at 60 ppm (Septoria tritici) | inhibition of growth at 60 ppm (Fusarium culmorum)

CSC(Oc1ccc2ncc(C#CBr)cc2c1)C(=O)NC(C)(C)C (stereo not drawn) [Example 69]
≥ 60%: inhibition of growth at 20 ppm (Pythium ultimum) | pest or weed control at 200 ppm (Phytophthora infestans) | pest or weed control at 200 ppm (Plasmopara viticola) | inhibition of growth at 60 ppm (Septoria tritici) | inhibition of growth at 60 ppm (Fusarium culmorum)

C#Cc1cnc2ccc(OC(OC)C(=O)NC(C)(C)C)cc2c1 (stereo not drawn) [Example 87]
≥ 60%: pest or weed control at 200 ppm (Phytophthora infestans) | pest or weed control at 200 ppm [1] | pest or weed control at 200 ppm (Plasmopara viticola) | pest or weed control at 200 ppm [2] | pest or weed control at 200 ppm (Septoria nodorum) | inhibition of growth at 60 ppm (Septoria tritici) | inhibition of growth at 60 ppm (Fusarium culmorum)

C#Cc1cnc2ccc(OC(SC)C(=O)NCC)cc2c1 (stereo not drawn) [Example 97]
≥ 60%: inhibition of growth at 20 ppm (Pythium ultimum) | pest or weed control at 200 ppm (Phytophthora infestans) | pest or weed control at 200 ppm [1] | pest or weed control at 200 ppm (Plasmopara viticola) | pest or weed control at 200 ppm [2] | pest or weed control at 200 ppm (Septoria nodorum) | inhibition of growth at 60 ppm (Septoria tritici) | inhibition of growth at 60 ppm (Fusarium culmorum)

C#Cc1cnc2ccc(OC(SC)C(=O)NC(C)C)cc2c1 (stereo not drawn) [Example 98]
≥ 60%: inhibition of growth at 20 ppm (Pythium ultimum) | pest or weed control at 200 ppm (Phytophthora infestans) | pest or weed control at 200 ppm [1] | pest or weed control at 200 ppm (Plasmopara viticola) | pest or weed control at 200 ppm [2] | pest or weed control at 200 ppm (Septoria nodorum) | inhibition of growth at 60 ppm (Septoria tritici) | inhibition of growth at 60 ppm (Fusarium culmorum)

C#Cc1cnc2cc(F)c(OC(SC)C(=O)NC(C)(C)C#CC)cc2c1 (stereo not drawn) [Example 107]
≥ 60%: pest or weed control at 200 ppm (Phytophthora infestans) | pest or weed control at 200 ppm [1] | pest or weed control at 200 ppm (Plasmopara viticola) | pest or weed control at 200 ppm [2] | pest or weed control at 200 ppm (Septoria nodorum) | inhibition of growth at 60 ppm (Septoria tritici) | inhibition of growth at 60 ppm (Fusarium culmorum)

C#Cc1cnc2ccc(OC(CC)C(=O)NC(C)(C)CO)cc2c1 (stereo not drawn) [Example 110]
≥ 60%: inhibition of growth at 20 ppm (Pythium ultimum) | pest or weed control at 200 ppm (Phytophthora infestans) | pest or weed control at 200 ppm [1] | pest or weed control at 200 ppm (Septoria nodorum) | inhibition of growth at 60 ppm (Septoria tritici) | inhibition of growth at 60 ppm (Fusarium culmorum)

C#Cc1cnc2c(C)cc(OC(CC)C(=O)NC(C)(C)CO)cc2c1 (stereo not drawn) [Example 111]
≥ 60%: inhibition of growth at 20 ppm (Pythium ultimum) | pest or weed control at 200 ppm (Phytophthora infestans) | pest or weed control at 200 ppm [1] | pest or weed control at 200 ppm (Plasmopara viticola) | pest or weed control at 200 ppm (Septoria nodorum) | inhibition of growth at 60 ppm (Septoria tritici) | inhibition of growth at 60 ppm (Fusarium culmorum)

C#Cc1cnc2ccc(OC(OC)C(=O)NC(C)(C)C#C)cc2c1 (stereo not drawn) [Example 124]
≥ 60%: inhibition of growth at 20 ppm (Pythium ultimum) | pest or weed control at 200 ppm (Phytophthora infestans) | pest or weed control at 200 ppm [1] | pest or weed control at 200 ppm (Plasmopara viticola) | pest or weed control at 200 ppm (Septoria nodorum) | inhibition of growth at 60 ppm (Septoria tritici) | inhibition of growth at 60 ppm (Fusarium culmorum)

C#Cc1cnc2ccc(OC(OC)C(=O)NC(C)(C)C#CCOC)cc2c1 (stereo not drawn) [Example 125]
≥ 60%: inhibition of growth at 20 ppm (Pythium ultimum) | pest or weed control at 200 ppm (Phytophthora infestans) | pest or weed control at 200 ppm [1] | pest or weed control at 200 ppm (Plasmopara viticola) | inhibition of growth at 60 ppm (Septoria tritici) | inhibition of growth at 60 ppm (Fusarium culmorum)

C#CCOCC(C)(C)NC(=O)C(OC)Oc1ccc2ncc(C#C)cc2c1 (stereo not drawn) [Example 127]
≥ 60%: inhibition of growth at 20 ppm (Pythium ultimum) | pest or weed control at 200 ppm (Phytophthora infestans) | pest or weed control at 200 ppm [1] | pest or weed control at 200 ppm (Plasmopara viticola) | pest or weed control at 200 ppm [2] | pest or weed control at 200 ppm (Septoria nodorum) | inhibition of growth at 60 ppm (Septoria tritici) | inhibition of growth at 60 ppm (Fusarium culmorum)

CSC(Oc1ccc2ncc(C#CCCl)cc2c1)C(=O)NC(C)(C)C (stereo not drawn) [Example 143]
≥ 60%: inhibition of growth at 20 ppm (Pythium ultimum) | pest or weed control at 200 ppm [2] | pest or weed control at 200 ppm (Septoria nodorum) | inhibition of growth at 60 ppm (Septoria tritici) | inhibition of growth at 60 ppm (Fusarium culmorum)

C#Cc1cnc2ccc(OC(SC)C(=O)NC(C)(C#C)C#C)cc2c1 (stereo not drawn) [Example 159]
≥ 60%: inhibition of growth at 20 ppm (Pythium ultimum) | pest or weed control at 200 ppm (Phytophthora infestans) | pest or weed control at 200 ppm [1] | pest or weed control at 200 ppm (Plasmopara viticola) | pest or weed control at 200 ppm [2] | pest or weed control at 200 ppm (Septoria nodorum) | inhibition of growth at 60 ppm (Septoria tritici) | inhibition of growth at 60 ppm (Fusarium culmorum)

C#Cc1cnc2cc(F)c(OC(SC)C(=O)NC(C)C)cc2c1 (stereo not drawn) [Example 181]
≥ 60%: inhibition of growth at 20 ppm (Pythium ultimum) | pest or weed control at 200 ppm (Phytophthora infestans) | pest or weed control at 200 ppm [1] | pest or weed control at 200 ppm (Plasmopara viticola) | pest or weed control at 200 ppm [2] | pest or weed control at 200 ppm (Septoria nodorum) | inhibition of growth at 60 ppm (Septoria tritici) | inhibition of growth at 60 ppm (Fusarium culmorum)

C#CCC(C)(C)NC(=O)C(Oc1cc2cc(C#C)cnc2cc1F)SC (stereo not drawn) [Example 187]
≥ 60%: inhibition of growth at 20 ppm (Pythium ultimum) | pest or weed control at 200 ppm (Phytophthora infestans) | pest or weed control at 200 ppm [1] | pest or weed control at 200 ppm (Plasmopara viticola) | pest or weed control at 200 ppm [2] | pest or weed control at 200 ppm (Septoria nodorum) | inhibition of growth at 60 ppm (Septoria tritici) | inhibition of growth at 60 ppm (Fusarium culmorum)

C#Cc1cnc2cc(F)c(OC(SC)C(=O)NC(C)(C#C)CC)cc2c1 (stereo not drawn) [Example 188]
≥ 60%: inhibition of growth at 20 ppm (Pythium ultimum) | pest or weed control at 200 ppm (Phytophthora infestans) | pest or weed control at 200 ppm [1] | pest or weed control at 200 ppm (Plasmopara viticola) | pest or weed control at 200 ppm [2] | pest or weed control at 200 ppm (Septoria nodorum) | inhibition of growth at 60 ppm (Septoria tritici) | inhibition of growth at 60 ppm (Fusarium culmorum)

C#Cc1cnc2ccc(OC(SC)C(=O)NCC#N)cc2c1 (stereo not drawn) [Example 196]
≥ 60%: inhibition of growth at 20 ppm (Pythium ultimum) | pest or weed control at 200 ppm (Phytophthora infestans) | pest or weed control at 200 ppm [1] | pest or weed control at 200 ppm (Plasmopara viticola) | pest or weed control at 200 ppm (Septoria nodorum) | inhibition of growth at 60 ppm (Septoria tritici) | inhibition of growth at 60 ppm (Fusarium culmorum)

C#Cc1cnc2ccc(OC(SC)C(=O)NC(C)(C)CC#N)cc2c1 (stereo not drawn) [Example 197]
≥ 60%: inhibition of growth at 20 ppm (Pythium ultimum) | pest or weed control at 200 ppm (Phytophthora infestans) | pest or weed control at 200 ppm (Plasmopara viticola) | inhibition of growth at 60 ppm (Fusarium culmorum)

C#Cc1cnc2c(F)cc(OC(SC)C(=O)NC(C)(C)C)cc2c1 (stereo not drawn) [Example 201]
≥ 60%: inhibition of growth at 20 ppm (Pythium ultimum) | pest or weed control at 200 ppm (Phytophthora infestans) | pest or weed control at 200 ppm [1] | pest or weed control at 200 ppm (Plasmopara viticola) | pest or weed control at 200 ppm (Septoria nodorum) | inhibition of growth at 60 ppm (Septoria tritici) | inhibition of growth at 60 ppm (Fusarium culmorum)

C#Cc1cnc2ccc(OC(SC)C(=O)NC(C)(C#C)CC)cc2c1 (stereo not drawn) [Example 205]
≥ 60%: inhibition of growth at 20 ppm (Pythium ultimum) | pest or weed control at 200 ppm (Phytophthora infestans) | pest or weed control at 200 ppm [1] | pest or weed control at 200 ppm (Plasmopara viticola) | inhibition of growth at 60 ppm (Fusarium culmorum)

C#Cc1cnc2ccc(OC(SC)C(=O)NC(C#C)(CC)CC)cc2c1 (stereo not drawn) [Example 207]
≥ 60%: inhibition of growth at 20 ppm (Pythium ultimum) | pest or weed control at 200 ppm (Phytophthora infestans) | pest or weed control at 200 ppm [1] | pest or weed control at 200 ppm (Plasmopara viticola) | pest or weed control at 200 ppm [2] | inhibition of growth at 60 ppm (Fusarium culmorum)

C#Cc1cnc2cc(F)c(OC(SC)C(=O)NC(C)(C=O)COC)cc2c1 (stereo not drawn) [Example 210]
≥ 60%: inhibition of growth at 20 ppm (Pythium ultimum) | pest or weed control at 200 ppm [1] | pest or weed control at 200 ppm (Plasmopara viticola) | pest or weed control at 200 ppm [2] | pest or weed control at 200 ppm (Septoria nodorum) | inhibition of growth at 60 ppm (Septoria tritici) | inhibition of growth at 60 ppm (Fusarium culmorum)
